Results on 3 compounds are retold here after patent publication US20230227445A1, “BENZAMIDE COMPOUND AND USE THEREOF” (HUMANWELL HEALTHCARE (GROUP) CO., LTD., priority 2020, published 2023).

One data set has as its target T1, hP2X3 receptor (Homo sapiens, UniProt P56373).
T1 construct: expressed in transfected cells
T1 sequence (P56373 1-397): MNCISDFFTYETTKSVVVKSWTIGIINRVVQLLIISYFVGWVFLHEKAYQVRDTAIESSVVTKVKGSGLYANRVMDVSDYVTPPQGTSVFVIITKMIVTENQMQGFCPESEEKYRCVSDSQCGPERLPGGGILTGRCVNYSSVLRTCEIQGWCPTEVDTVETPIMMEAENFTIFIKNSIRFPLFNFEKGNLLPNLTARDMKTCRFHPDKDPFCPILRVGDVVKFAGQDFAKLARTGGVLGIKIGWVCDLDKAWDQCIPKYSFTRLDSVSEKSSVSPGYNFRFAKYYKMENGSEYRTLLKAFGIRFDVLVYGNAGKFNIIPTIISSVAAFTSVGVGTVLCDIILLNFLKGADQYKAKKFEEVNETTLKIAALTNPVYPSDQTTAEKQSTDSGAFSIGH
Nature of the data set: Antagonistic activity against hP2X3 receptor by FLIPR calcium flow assay. The data set is classed as cell-based. The settings on record: for IC50: human cells stably transfected with hP2X3, agonist α,β-meATP 400 nM; for antagonistic activity against hP2X3 receptor compared with Reference compound 1 (in words): vs Reference compound 1. Here is the method:
The antagonistic activity of hP2X3 antagonists against hP2X3 receptor was evaluated by means of FLIPR Calcium 4 Assay Kit (Molecular Devices, R8141) and FLIPR TETRA instrument (Molecular Devices, 0296) by detecting calcium flow signals. 24h before the experiment, human cells, which had been stably transfected with hP2X3 receptors, were plated on a 384-well plate at 2×10^5 cells/mL, with 50 μL of cell suspension per well, and the plate was cultured in an incubator (37° C., 5% CO2) for 16 h to 24 h. The test compound solution (20 to 50 mM DMSO stock solution) with a concentration of 180 times the required concentration was prepared using DMSO. The stock solution was added to the 384-well plate at 500 nL per well, supplemented with 30 μL of FLIPR Assay buffer (1×HBSS+2 mM CaCl2 20 mM HEPES containing 1.26 mM Ca^2+). The 384-well plate was shaken for 20 to 40 min to mix evenly. An agonist (α, β-meATP) with a concentration of 3 times the required concentration (required final concentration was 400 nM) was prepared with FLIPR Assay buffer, and was added to another 384-well plate at 45 μL per well. The culture plate, on which the cells were plated one day ago, was taken, the cell supernatant was sucked and discarded, each well was added with 30 μL of Dye (FLIPR® Calcium 4 Assay Kit, diluted with FLIPR buffer), and then the plate was incubated for 1h. 15 μL of compound was added to each well of cells (using FLIPR sample injector). After 15 minutes, 22.5 μL of the agonist was added to each well, and the fluorescence signal (exciting light wavelength ranging from 470 nm to 495 nm, and emission wavelength ranging from 515 nm to 575 nm) was detect. […] An inhibition effect curve of the compound was fitted on the software GraphpadPrism6, and the IC50 value was calculated.

Data set [1] is described as follows: Pharmacokinetic assay in mouse. The data set is classed as in vivo, ICR mice. The settings on record: for pharmacokinetic properties in mouse compared with Reference compound 1 and Reference compound 2 (in words): mouse assay, vs Reference compounds 1 and 2. The method, then:
For a mouse pharmacokinetic assay, male ICR mice (20 g to 25 g) were selected and fasted overnight. Three mice were intragastrically administered with 10 mg/kg of the corresponding compound. The blood of the mice was collected before the administration and at 15 min, 30 min, 1 h, 2 h, 4 h, 8 h, and 24 h after the administration. The blood samples were centrifuged at 4° C. for 6 minutes at 6,800 g, plasma was collected and stored at −80° C.
The supernatant was mixed with 3 times the amount of water, and an appropriate amount of the mixed solution was taken for LC-MS/MS analysis. The primary pharmacokinetic parameters were analyzed by WinNonlin 7.0 software non-atrioventricular model.

The next data set relates to rat taste. The experiment in a line: Taste test in rat (water vs 0.3 mM aqueous quinine solution intake). The data set is classed as in vivo, SD rats. The settings on record: for Water/aqueous quinine solution (ratio of water intake to aqueous quinine solution intake): SD rats, 30 mg/kg i.p, 0.3 mM quinine, 15 min supply half an hour after administration. The method, then: SD rats were administered with the corresponding compound after 3 days of overnight water prohibition training. Each rat was supplied with 1 bottle of water and 1 bottle of 0.3 mM aqueous quinine solution half an hour after the administration. After 15 min of water supply, the bottles were removed. The intake amount of water and the intake amount of the 0.3 mM aqueous quinine solution were measured, respectively. The taste influence of the compound on SD rats was evaluated based on the difference between the intake amount of water and the intake amount of the aqueous quinine solution.

Data set [2] concerns histamine/citric acid-stimulated cough in guinea pig. The experiment in a line: Efficacy test for histamine/citric acid-stimulated cough in guinea pig. The data set is classed as in vivo. The settings on record: guinea pigs, nasal drops, 0.17 mg/kg to 1.5 mg/kg, histamine/citric acid stimulation. Here is the method: Guinea pigs were adaptively fed for 3 days to 7 days before being grouped. When the body weight of the guinea pigs reached 300 g to 400 g, they were numbered and randomly grouped.
Compounds or an excipient were administered to guinea pigs by nasal drops 0.25 hour to 24 hours before the start of the cough assessment. The administration dose of the test sample ranged from 0.17 mg/kg to 1.5 mg/kg. For the cough assessment, the guinea pigs were placed in a whole-body volume scan box for adaptation, and then, they were provided with histamine nebulization and then citric acid nebulization. […]
(§1) The experimental data was statistically analyzed by one-way ANOVA to analyze and compare data of the various groups. The statistical analysis result p<0.05 was regarded as a significant difference. The t-test was employed for difference comparison between any two.

Data set [3] has as its system ATP/citric acid-stimulated cough in guinea pig. Nature of the data set: Efficacy test for ATP/citric acid-stimulated cough in guinea pig. It is filed as in vivo. The settings on record: guinea pigs, nasal drops, 0.17 mg/kg to 1.5 mg/kg, ATP/citric acid stimulation. The method, then: Guinea pigs were adaptively fed for 3 days to 7 days before being grouped. When the body weight of the guinea pigs reached 300 g to 400 g, they were numbered and randomly grouped. Compounds or an excipient were administered to guinea pigs by nasal drops 0.25 hour to 24 hours before the start of the cough assessment. The administration dose of the test sample ranged from 0.17 mg/kg to 1.5 mg/kg. For the cough assessment, the guinea pigs were placed in a whole-body volume scan box for adaptation, and then provided with ATP nebulization, and a few minutes later, they were provided with citric acid nebulization. The cough times within 15 minutes and the cough latency were recorded from the beginning of citric acid nebulization.
as §1

A short description of data set [4]: Pharmacokinetic assay in canine. The data set is classed as in vivo, Beagle dogs. The method, then:
For a canine pharmacokinetic assay, male Beagle dogs (8 kg to 10 kg) were selected and fasted overnight. Three Beagle dogs were intragastrically administered with 5 mg/kg of the corresponding compound. Another 3 Beagle dogs were intravenously administered with 1 mg/kg of the corresponding compound. The blood of the dogs was collected before the administration and at 15 min, 30 min, 1 h, 2 h, 4 h, 8 h, and 24 h after the administration. The blood samples were centrifuged at 4° C. for 6 minutes at 8,000 r/min, plasma was collected and stored at −20° C. […] The supernatant was taken and mixed with 3 times the amount of water, and an appropriate amount of the mixed solution was taken for LC-MS/MS analysis. The primary pharmacokinetic parameters were analyzed by WinNonlin 7.0 software non-atrioventricular model.

A short description of data set [5]: Pharmacokinetic assay in rat. It is filed as in vivo, SD rats. The settings on record: rat, plasma, po, male SD rats, intragastric administration, 10 mg/kg. Here is the method:
For a rat pharmacokinetic assay, male SD rats (180 g to 240 g) were selected and fasted overnight. Three rats were intragastrically administered with 10 mg/kg of the corresponding compound. The blood of the rats was collected before the administration and at 15 min, 30 min, 1 h, 2 h, 4 h, 8 h, and 24 h after the administration. The blood samples were centrifuged at 4° C. for 6 minutes at 8,000 r/min, and plasma was collected and stored at −20° C. Plasma at each time point was taken, and added with 3 to 5 times the amount of an internal standard-containing acetonitrile solution to mix, and the mixture was vortex mixed for 1 minute, and centrifuged at 4° C. for 10 minutes at 13,000 r/min. The supernatant was taken and mixed with 3 times the amount of water, and an appropriate amount of the mixed solution was taken for LC-MS/MS analysis. The primary pharmacokinetic parameters were analyzed by WinNonlin 7.0 software non-atrioventricular model.

The mark [6] stands for this setting: mouse, plasma, po, male ICR mice, intragastric administration, 10 mg/kg.
Where [7] appears, read: dog, plasma, po, male Beagle dogs, intragastric administration, 5 mg/kg.
Where [8] appears, read: dog, plasma, male Beagle dogs, intravenous administration, 1 mg/kg.

As for `Cc1cnc(-c2cc(O[C@@H](C)[C@@H](C)O)cc(C(=O)N[C@H](C)c3cnc(C(F)(F)F)nc3)c2F)s1` [Compound I-27, 2-fluoro-5-(((2S, 3R)-3-hydroxybutan-2-yl)oxy)-3-(5-methylthiazol-2-yl)-N—((R)-1-(2-(trifluoromethyl)pyrimidin-5-yl)ethyl)benzamide], on hP2X3 receptor, the half-inhibitory concentration (IC50) (as a rule, the concentration that gives 50% inhibition) came out at 67 nM and the “antagonistic activity against hP2X3 receptor compared with Reference compound 1 (in words)” value is given as “better antagonistic activity”. In data set [1], the “pharmacokinetic properties in mouse compared with Reference compound 1 and Reference compound 2 (in words)” value is “significantly improved pharmacokinetic properties”. Also, the “Water/aqueous quinine solution (ratio of water intake to aqueous quinine solution intake)” value in the data set with rat taste was found to be 29.4. Moreover, the “interference on rat taste compared with Reference compound 1 (in words)” value with rat taste (vs positive reference compound) is recorded as “significantly less interference on rat taste”. The “Average cough times within 15 min” value in data set [2] amounted to 8.9. For the same compound, in data set [3], the “Average cough times within 15 min” value was 6.3.

Consider `Cc1cnc(-c2cc(O[C@H](C)[C@H](C)O)cc(C(=O)N[C@H](C)c3cnc(C(F)(F)F)nc3)c2F)s1` [Compound I-29, 2-fluoro-5-(((2R, 3S)-3-hydroxybutan-2-yl)oxy)-3-(5-methylthiazol-2-yl)-N—((R)-1-(2-(trifluoromethyl)pyrimidin-5-yl)ethyl)benzamide], for which, at hP2X3 receptor, the IC50 is 57 nM and the “antagonistic activity against hP2X3 receptor compared with Reference compound 1 (in words)” value was “better antagonistic activity”. In addition, in data set [1], the “pharmacokinetic properties in mouse compared with Reference compound 1 and Reference compound 2 (in words)” value was “significantly improved pharmacokinetic properties”. For the same compound, in data set [1] (setting [6]), the AUC(0-t) – broadly, exposure summed from dosing to a finite time, without extrapolation to infinity – was found to be 14900 ng·h/mL; the maximum concentration (Cmax) (in general, the highest concentration seen after dosing) was found to be 4100 ng/mL; the time to peak (Tmax) (usually the time at which the peak concentration occurs) was found to be 1 h. For the same compound, the half-life in data set [1] (mouse, plasma, po, male ICR mice, intragastric administration, 10 mg/kg, read-out: T½ (converted)) is 2.23 h. Further, in the data set on rat taste, the “Water/aqueous quinine solution (ratio of water intake to aqueous quinine solution intake)” value is listed as 12.0. In data set [2], the “Average cough times within 15 min” value came out at 10.8 and the “Cough inhibition rate vs. solvent” value is reported as 59.4%. Moreover, the “half-life (in words)” value in data set [4] (canine) is listed as “long half-life”. Besides, the “clearance rate (in words)” value in data set [4] (canine, intravenous administration) was “low clearance rate”. Also, the “exposure (in words)” value in data set [4] (canine, oral and intravenous administrations) is “high exposure”. In data set [4] (canine, vs reference compound), the “pharmacokinetic characteristics compared with the reference compound (in words)” value is reported as “better pharmacokinetic characteristics”. In addition, in data set [4] (setting [7]), the area under the curve AUC(0-t) was 8730 ng·h/mL, the concentration peaked (Cmax) at 1160 ng/mL, the time of peak concentration (Tmax) was determined as 1 h and the half-life is 7.26 h. Further, in data set [4] (setting [8]), the AUC(0-t) amounted to 2010 ng·h/mL, the clearance (commonly the volume of plasma or blood freed of the substance per unit of time) is 7.5 mL/min/kg and the half-life is 7.64 h. Moreover, the Vd in data set [4] (dog, plasma, male Beagle dogs, intravenous administration, 1 mg/kg, read-out: Vz) came to 5 L/kg.

On to `Cc1cnc(-c2cc(O[C@@H]3CCOC3)cc(C(=O)N[C@H](C)c3cnc(C(F)(F)F)nc3)c2)s1` [Reference compound 1, reference compound], for which, in data set [5], the exposure AUC(0-t) amounted to 3330 ng·h/mL, the Cmax came out at 417 ng/mL and the Tmax turned out to be 2 h. For the same compound, the half-life in data set [5] (read-out: T½ (converted)) is 4.01 h. The “Average cough times within 15 min” value in data set [3] is 8.1.
